Source: patent publication CN113979875A, “一种地佐辛衍生物晶型a及其制备方法和应用” (Yangtze River Pharmaceutical Group Co Ltd, priority 2020, dated 2022)

Key:
[1] = molecular target: κ opioid receptor (κ阿片类受体) (Homo sapiens, UniProt P41145); experiment: Radioligand competitive binding, κ opioid receptor (Example 12)
[2] = molecular target: μ opioid receptor (μ阿片类受体) (Homo sapiens, UniProt P35372); experiment: Radioligand competitive binding, μ opioid receptor (Example 12)
[3] = molecular target: δ opioid receptor (δ阿片类受体) (Homo sapiens, UniProt P41143); experiment: Radioligand competitive binding, δ opioid receptor (Example 12)
[4] = Grinding test, crystal form by XRPD (Example 7); assay type: physicochemical; settings: agate mortar, thorough grinding for half an hour
[5] = Intermediate and long-term storage stability (Example 10); assay type: physicochemical; settings: 12 months
[6] = Stress (influencing factor) stability test, crystal form by XRPD (Example 9); assay type: physicochemical
[7] = intermediate condition 30℃±2℃/65%±5%RH
[8] = long-term condition 25℃±2℃/60%±5%RH

Row | SMILES | IC50 [1] [nM] | IC50 [2] [nM] | IC50 [3] [nM] | crystal transformation on grinding [4] | chemical stability [5, 7] | crystal form stability [5, 7] | chemical stability [5, 8] | crystal form stability [5, 8] | crystal form ([6]; day 0 (initial)) | crystal form ([6]; high humidity, 5 days) | crystal form ([6]; high humidity, 10 days) | crystal form ([6]; high humidity, 30 days) | crystal form ([6]; high temperature and high humidity, 5 days) | crystal form ([6]; high temperature and high humidity, 10 days) | crystal form ([6]; high temperature and high humidity, 30 days) | crystal transformation (XRPD compared with initial data) ([6]; high temperature and high humidity, high humidity, and light (Figs. 9-17)) | crystal form ([6]; light, 5 days) | crystal form ([6]; light, 10 days) | crystal form ([6]; light, 30 days) | change in all quality indices ([6]; light, high temperature and high humidity, high humidity, packed in medicinal LDPE bag and polyester/aluminium/polyethylene composite film)
1 | C[C@@]12CCCCC[C@@H](Cc3ccc(O)cc31)[C@@H]2NCc1ccccc1.Cl [地佐辛衍生物晶型A, 盐酸盐] | < 10 | < 10 | < 10 | – | – | – | – | – | – | – | – | – | – | – | – | – | – | – | – | –
2 | C[C@@]12CCCCC[C@@H](Cc3ccc(O)cc31)[C@@H]2NCc1ccccc1.Cl [地佐辛衍生物晶型A] | – | – | – | 未转晶 | 很好的化学稳定性 | 很好的化学稳定性和晶型稳定性 | 很好的化学稳定性 | 很好的化学稳定性和晶型稳定性 | 晶型A | 晶型A | 晶型A | 晶型A | 晶型A | 晶型A | 晶型A | 没有发生转晶现象 | 晶型A | 晶型A | 晶型A | 各项指标无明显变化,均符合质量标准要求
